For series [1], the system named is Human pancreatic cancer cells (Pancl). The experiment in a line: Cancer cell line growth inhibition assay (DNA content). It counts as cell-based. Details: inhibition of growth of Pancl cells: dose or concentration left out as unconfirmed. As to conditions: for IC50: Homo sapiens, Pancreatic cancer cell, 72 h, continuous exposure for three days; for IC50 / activity/potency against growth of Pancl cells (in words): DNA content per well; for inhibition of growth of Pancl cells / activity/potency against growth of Pancl cells (in words): three days. On the procedure: Growth inhibition assays were performed in the Translational Research Shared Resource of the Case Comprehensive Cancer Centre. Human pancreatic cancer cells (Pancl) were maintained in standard growth medium consisting of (RPMI1640+10% FBS+2 mM glutamine+100 U/mL penicillin, and […] streptomycin). Cells were monitored and shown to be negative for mycoplasma contamination using the Mycoplasma Detection kit (MycoAlert™, Lonza, Basel, Switzerland). For growth inhibition assays, cells were harvested by trypsinisation and seeded into 96-well tissue culture plates at 2500 cells/mL. The following day, triplicate wells were treated with an appropriate volume of 5x-inhibitor-containing medium. The cells were cultured for 3 additional days at 37° C. in a 5% CO2 humidified incubator. Cell growth was assessed by measuring total DNA content per well using an adaptation of the method of Labarca and Paigen.

In series [2] the test system is blood progenitor cells. Conditions: previously shown, cited from earlier work.

The structures appear in SMILES notation. A value given as a limit tells only on which side of the number the result lay.

On to `O=C1Nc2ccccc2/C1=N\NC(=O)c1ccccc1O` [TP1, (E)-2-Hydroxy-N′-(2-Oxoindolin-3-Ylidene)Benzohydrazide], for which, in series [1], the IC50 was more than 10000 nM and the “inhibition of growth of Pancl cells” value is “did not inhibit the growth”.

In turn, `O=C(N/N=C/c1cc(-c2ccccc2)ccc1O)c1ccccc1O` [TP2] gave a melting point of 273.5 to 274.9 °C. In series [1], the IC50 was 2000 to 3000 nM.

Take `O=C(N/N=C/c1cc(-c2ccsc2)ccc1O)c1ccccc1O` [TP3, (E)-2-Hydroxy-N′-(2-Hydroxy-5-(Thiophen-3-Yl)-Benzylidene)-Benzohydrazide]: the melting point is 282.9 to 284.6 °C. The IC50 in series [1] was in the range of 2000 to 3000 nM.

As for `COc1ccc(-c2ccoc2)c(/C=N/NC(=O)c2ccccc2O)c1O` [TP4, (E)-N′-(6-(Furan-3-Yl)-2-Hydroxy-3-Methoxybenzylidene)-2-Hydroxybenzohydrazide], the melting point was 228.3 °C (dec.). In addition, the IC50 in series [1] is less than 1500 nM.

In turn, `COc1ccc(-c2ccccc2)c(/C=N/NC(=O)c2ccccc2O)c1O` [TP5, (E)-2-Hydroxy-N′-((3-Hydroxy-4-Methoxy-11,1′-Biphenyll-2-Yl)Methylene)-Benzohydrazide] yielded a melting point of 257.9 to 259.4 °C. The molecule further had an IC50 in series [1] of less than 1500 nM.

As for `COc1ccc(-c2ccsc2)c(/C=N/NC(=O)c2ccccc2O)c1O` [TP6, (E)-2-Hydroxy-N′-(2-Hydroxy-3-Methoxy-6-(Thiophen-3-Yl)Benzylidene)-Benzohydrazide], the melting point came out at 229.5 °C. Further, in series [1], the IC50 is less than 1500 nM and the “activity/potency against growth of Pancl cells (in words)” value is “greatest potency”. Moreover, the “decrease in IC50 over the lead compound NSAH (TP8)” value in series [1] (Pancl cells) is listed as more than 2 fold.

With `Nc1ncnc2c1ncn2-c1ccc(/C=N/NC(=O)c2ccccc2O)cc1` [TP7, (E)-N′-(4-(6-Amino-9H-Purin-9-Yl)Benzylidene)-2-Hydroxybenzohydrazide], the melting point worked out at 229.5 °C. In series [1], the IC50 was more than 10000 nM and the “inhibition of growth of Pancl cells” value is “did not inhibit the growth”.

For `O=C(N/N=C/c1c(O)ccc2ccccc12)c1ccccc1O` [TP8, (E)-2-Hydroxy-N′-((2-Hydroxynaphthalen-1-Yl)Methylene)-Benzohydrazide], the melting point amounted to 223.8 °C. Also, the “effectiveness against blood progenitor cells versus cancer cell lines” value in series [2] was “much less effective”. Moreover, in series [2] (same cell-cell comparison), the “therapeutic index compared with gemcitabine” value is “higher therapeutic index than gemcitabine”. In series [1], this molecule had an IC50 of less than 1500 nM.

As for `COc1ccc(-c2cnc(-c3ccccc3O)s2)cc1` [TP9, 2-(5-(4-Methoxyphenyl)Thiazol-2-Yl)-Phenol], the melting point is 95.2 to 96.8 °C. Besides, in series [1], the IC50 was more than 10000 nM, the “inhibition of growth of Pancl cells” value is reported as “did not inhibit the growth” and the “activity/potency against growth of Pancl cells (in words)” value is on record as “ineffective”.

Consider `O=C(N/N=C/c1c(O)ccc2ccccc12)c1ccc(-n2ccccc2=O)cc1` [TP10, (E)-N′-((2-Hydroxynaphthalen-1-Yl)Methylene)-4-(2-Oxopyridin-1(2H)-Yl)-Benzohydrazide], for which the melting point came out at 258.6 °C. The IC50 in series [1] fell in the range of 2000 to 3000 nM.

In turn, `O=C(NNC(=O)c1c(O)ccc2ccccc12)c1cccnc1` [TP11, N′-(2-Hydroxy-1-Naphthoyl)-Nicotinohydrazide] returned a melting point of 227.1 to 228.6 °C. In series [1], the IC50 was more than 10000 nM and the “inhibition of growth of Pancl cells” value is reported as “did not inhibit the growth”.

The molecule `O=C(N/N=C/c1cccnc1)c1c(O)ccc2ccccc12` [TP12, (E)-2-Hydroxy-N′-(Pyridin-3-Ylmethylene)-1-Naphthohydrazide] gave a melting point of 202.8 to 204.5 °C. Also, in series [1], the IC50 is more than 10000 nM and the “inhibition of growth of Pancl cells” value is given as “did not inhibit the growth”.

Take `O=C(NNC(=O)c1ccccc1O)c1cccnc1` [TP13, N′-(2-Hydroxybenzoyl)-Nicotinohydrazide]: the melting point lay within 216.6 to 217.7 °C. Also, in series [1], the IC50 is more than 10000 nM and the “inhibition of growth of Pancl cells” value was “did not inhibit the growth”.

These data come from patent US12011432B2, “Method of modulating ribonucleotide reductase” (CASE WESTERN RESERVE UNIVERSITY, priority 2018, dated 2024).
